pIC50: −log10 of the molar value.
Legend:
Assay in all cases: biochemical
Design in all cases: species or system HEK293/K-562/placenta mixed human extract; Kinobeads chemoproteomic competition binding, quantified by TMT LC-MS/MS, dose response up to 20 uM
BRAF = BRAF (Homo sapiens, UniProt P15056)
CDK7 = CDK7 (Homo sapiens, UniProt P50613)
FLT4 = FLT4 (Homo sapiens, UniProt P35916)
HCK = HCK (Homo sapiens, UniProt P08631)
LIMK2 = LIMK2 (Homo sapiens, UniProt P53671)
MAP3K11 = MAP3K11 (Homo sapiens, UniProt Q16584)
MAP4K4 = MAP4K4 (Homo sapiens, UniProt O95819)
MAPK1 = MAPK1 (Homo sapiens, UniProt P28482)
MAPK11 = MAPK11 (Homo sapiens, UniProt Q15759)
MAPKAPK5 = MAPKAPK5 (Homo sapiens, UniProt Q8IW41)
PDPK1 = PDPK1 (Homo sapiens, UniProt O15530)
PIM1 = PIM1 (Homo sapiens, UniProt P11309)
RIPK2 = RIPK2 (Homo sapiens, UniProt O43353)
RPS6KA1 = RPS6KA1 (Homo sapiens, UniProt Q15418)
RPS6KA3 = RPS6KA3 (Homo sapiens, UniProt P51812)
RPS6KA6 = RPS6KA6 (Homo sapiens, UniProt Q9UK32)
SIK2 = SIK2 (Homo sapiens, UniProt Q9H0K1)
SLK = SLK (Homo sapiens, UniProt Q9H2G2)
SYK = SYK (Homo sapiens, UniProt P43405)
TEK = TEK (Homo sapiens, UniProt Q02763)
TYK2 = TYK2 (Homo sapiens, UniProt P29597)
Sequence of TYK2 (P29597 whole entry): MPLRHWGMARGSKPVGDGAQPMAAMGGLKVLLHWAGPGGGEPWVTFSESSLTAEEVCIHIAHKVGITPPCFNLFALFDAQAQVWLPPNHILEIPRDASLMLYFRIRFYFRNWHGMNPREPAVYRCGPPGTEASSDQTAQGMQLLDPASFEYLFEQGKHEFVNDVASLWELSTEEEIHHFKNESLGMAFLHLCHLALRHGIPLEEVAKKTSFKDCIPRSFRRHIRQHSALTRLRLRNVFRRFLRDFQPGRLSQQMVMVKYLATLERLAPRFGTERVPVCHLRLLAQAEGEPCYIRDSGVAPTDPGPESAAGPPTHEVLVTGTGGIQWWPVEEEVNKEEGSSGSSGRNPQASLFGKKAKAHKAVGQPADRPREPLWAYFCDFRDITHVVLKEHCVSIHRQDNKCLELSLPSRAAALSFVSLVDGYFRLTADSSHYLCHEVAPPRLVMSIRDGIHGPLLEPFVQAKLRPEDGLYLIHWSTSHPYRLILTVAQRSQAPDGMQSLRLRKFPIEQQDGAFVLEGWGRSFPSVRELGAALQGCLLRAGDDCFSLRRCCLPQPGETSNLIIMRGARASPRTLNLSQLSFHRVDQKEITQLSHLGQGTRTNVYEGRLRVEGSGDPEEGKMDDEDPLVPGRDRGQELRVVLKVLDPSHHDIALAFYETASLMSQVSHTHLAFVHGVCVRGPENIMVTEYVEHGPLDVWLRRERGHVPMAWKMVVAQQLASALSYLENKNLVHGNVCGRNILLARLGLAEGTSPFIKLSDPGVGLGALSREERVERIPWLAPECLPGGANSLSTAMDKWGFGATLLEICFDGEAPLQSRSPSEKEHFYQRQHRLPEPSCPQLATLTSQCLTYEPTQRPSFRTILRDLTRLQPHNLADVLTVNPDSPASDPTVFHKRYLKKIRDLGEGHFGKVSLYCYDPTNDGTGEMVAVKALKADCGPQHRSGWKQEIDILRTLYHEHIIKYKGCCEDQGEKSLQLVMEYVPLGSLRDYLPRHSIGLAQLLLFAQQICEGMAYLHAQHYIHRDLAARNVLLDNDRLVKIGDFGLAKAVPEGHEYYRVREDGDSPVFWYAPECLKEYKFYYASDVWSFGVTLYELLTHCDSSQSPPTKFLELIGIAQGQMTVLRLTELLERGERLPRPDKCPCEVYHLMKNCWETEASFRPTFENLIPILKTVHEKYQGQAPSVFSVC

Sequence of MAPK11 (Q15759 whole entry): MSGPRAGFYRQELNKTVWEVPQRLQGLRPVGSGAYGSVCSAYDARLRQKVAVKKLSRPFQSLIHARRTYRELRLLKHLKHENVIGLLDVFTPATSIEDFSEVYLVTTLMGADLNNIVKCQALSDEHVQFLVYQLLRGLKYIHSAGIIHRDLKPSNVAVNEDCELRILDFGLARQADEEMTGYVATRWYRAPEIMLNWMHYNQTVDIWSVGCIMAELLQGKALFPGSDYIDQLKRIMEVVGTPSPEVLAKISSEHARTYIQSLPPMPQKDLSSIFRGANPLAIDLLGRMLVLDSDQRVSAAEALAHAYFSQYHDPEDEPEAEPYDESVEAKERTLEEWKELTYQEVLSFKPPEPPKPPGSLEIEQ
Sequence of FLT4 (P35916 whole entry): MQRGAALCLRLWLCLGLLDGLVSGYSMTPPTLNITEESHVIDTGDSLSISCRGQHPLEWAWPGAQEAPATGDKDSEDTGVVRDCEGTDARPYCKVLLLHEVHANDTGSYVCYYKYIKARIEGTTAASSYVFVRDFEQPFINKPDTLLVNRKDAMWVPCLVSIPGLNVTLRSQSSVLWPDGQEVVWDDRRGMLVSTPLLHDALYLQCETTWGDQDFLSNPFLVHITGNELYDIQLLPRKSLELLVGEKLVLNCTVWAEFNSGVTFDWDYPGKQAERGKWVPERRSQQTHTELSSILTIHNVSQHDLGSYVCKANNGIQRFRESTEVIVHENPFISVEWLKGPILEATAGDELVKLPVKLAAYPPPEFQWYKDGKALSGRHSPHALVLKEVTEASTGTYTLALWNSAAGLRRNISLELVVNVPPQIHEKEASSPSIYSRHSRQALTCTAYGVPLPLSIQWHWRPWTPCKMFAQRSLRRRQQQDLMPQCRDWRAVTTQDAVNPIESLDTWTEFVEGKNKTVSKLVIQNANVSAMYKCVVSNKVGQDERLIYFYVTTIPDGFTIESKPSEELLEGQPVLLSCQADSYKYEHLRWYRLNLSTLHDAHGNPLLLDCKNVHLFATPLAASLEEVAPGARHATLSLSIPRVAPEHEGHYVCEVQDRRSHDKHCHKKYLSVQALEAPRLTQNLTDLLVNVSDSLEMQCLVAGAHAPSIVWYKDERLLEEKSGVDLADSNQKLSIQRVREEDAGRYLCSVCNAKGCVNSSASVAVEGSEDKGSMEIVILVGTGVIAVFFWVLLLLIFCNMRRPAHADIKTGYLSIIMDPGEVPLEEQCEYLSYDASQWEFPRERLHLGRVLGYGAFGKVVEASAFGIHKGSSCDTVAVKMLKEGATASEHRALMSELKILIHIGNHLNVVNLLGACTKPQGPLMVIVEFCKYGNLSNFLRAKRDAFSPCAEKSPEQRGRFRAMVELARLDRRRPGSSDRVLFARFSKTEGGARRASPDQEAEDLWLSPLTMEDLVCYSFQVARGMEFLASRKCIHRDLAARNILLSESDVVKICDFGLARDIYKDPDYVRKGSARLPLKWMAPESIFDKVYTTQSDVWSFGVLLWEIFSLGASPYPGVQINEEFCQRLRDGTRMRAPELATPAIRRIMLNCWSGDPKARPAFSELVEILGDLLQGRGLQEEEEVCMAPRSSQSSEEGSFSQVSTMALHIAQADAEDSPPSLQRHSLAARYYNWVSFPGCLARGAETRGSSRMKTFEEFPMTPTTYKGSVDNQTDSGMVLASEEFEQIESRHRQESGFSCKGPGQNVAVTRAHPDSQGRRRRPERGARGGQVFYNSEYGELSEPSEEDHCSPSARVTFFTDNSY
Sequence of RPS6KA1 (Q15418 whole entry): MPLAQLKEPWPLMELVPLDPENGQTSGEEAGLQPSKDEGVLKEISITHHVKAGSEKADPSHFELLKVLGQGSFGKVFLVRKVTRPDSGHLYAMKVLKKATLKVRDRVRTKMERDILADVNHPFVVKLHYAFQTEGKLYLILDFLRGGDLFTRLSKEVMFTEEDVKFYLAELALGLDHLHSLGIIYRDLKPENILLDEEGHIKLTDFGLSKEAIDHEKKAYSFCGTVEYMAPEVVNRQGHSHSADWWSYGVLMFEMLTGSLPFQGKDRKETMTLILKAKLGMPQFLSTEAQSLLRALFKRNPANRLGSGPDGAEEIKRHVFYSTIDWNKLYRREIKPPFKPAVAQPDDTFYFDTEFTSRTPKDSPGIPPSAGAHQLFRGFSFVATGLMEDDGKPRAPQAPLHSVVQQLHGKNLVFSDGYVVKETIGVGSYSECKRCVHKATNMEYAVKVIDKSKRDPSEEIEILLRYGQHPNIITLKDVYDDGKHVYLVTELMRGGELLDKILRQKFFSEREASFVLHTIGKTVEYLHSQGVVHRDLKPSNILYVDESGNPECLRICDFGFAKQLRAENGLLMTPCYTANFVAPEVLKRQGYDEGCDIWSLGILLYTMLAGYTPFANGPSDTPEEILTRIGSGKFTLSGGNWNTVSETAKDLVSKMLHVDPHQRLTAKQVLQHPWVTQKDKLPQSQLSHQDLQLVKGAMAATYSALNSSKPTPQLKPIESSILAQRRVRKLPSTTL
Sequence of SIK2 (Q9H0K1 whole entry): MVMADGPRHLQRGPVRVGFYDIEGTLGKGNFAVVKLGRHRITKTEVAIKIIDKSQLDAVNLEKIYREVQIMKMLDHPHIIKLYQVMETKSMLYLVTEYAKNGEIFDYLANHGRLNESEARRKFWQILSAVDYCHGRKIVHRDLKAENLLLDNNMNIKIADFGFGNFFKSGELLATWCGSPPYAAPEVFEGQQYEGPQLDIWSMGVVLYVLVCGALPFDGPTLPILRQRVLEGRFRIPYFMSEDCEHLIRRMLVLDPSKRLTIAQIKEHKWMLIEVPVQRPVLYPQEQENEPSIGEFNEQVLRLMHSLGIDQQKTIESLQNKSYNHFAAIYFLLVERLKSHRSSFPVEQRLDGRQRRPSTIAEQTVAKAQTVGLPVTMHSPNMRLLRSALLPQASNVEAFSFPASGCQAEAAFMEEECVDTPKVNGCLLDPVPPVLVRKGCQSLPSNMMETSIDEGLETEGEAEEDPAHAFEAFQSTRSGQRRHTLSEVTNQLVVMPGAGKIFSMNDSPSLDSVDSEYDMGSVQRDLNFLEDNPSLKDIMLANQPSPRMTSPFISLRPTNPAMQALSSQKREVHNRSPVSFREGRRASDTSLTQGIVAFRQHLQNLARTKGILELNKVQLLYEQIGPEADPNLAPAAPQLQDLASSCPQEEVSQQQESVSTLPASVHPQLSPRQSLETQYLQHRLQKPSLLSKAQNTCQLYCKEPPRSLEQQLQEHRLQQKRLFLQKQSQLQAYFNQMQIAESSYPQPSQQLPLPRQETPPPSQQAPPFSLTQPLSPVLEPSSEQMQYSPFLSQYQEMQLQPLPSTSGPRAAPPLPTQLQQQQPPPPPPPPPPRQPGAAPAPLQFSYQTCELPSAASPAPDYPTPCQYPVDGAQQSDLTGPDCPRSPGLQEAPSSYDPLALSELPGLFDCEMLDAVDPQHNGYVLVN
Sequence of MAPKAPK5 (Q8IW41 whole entry): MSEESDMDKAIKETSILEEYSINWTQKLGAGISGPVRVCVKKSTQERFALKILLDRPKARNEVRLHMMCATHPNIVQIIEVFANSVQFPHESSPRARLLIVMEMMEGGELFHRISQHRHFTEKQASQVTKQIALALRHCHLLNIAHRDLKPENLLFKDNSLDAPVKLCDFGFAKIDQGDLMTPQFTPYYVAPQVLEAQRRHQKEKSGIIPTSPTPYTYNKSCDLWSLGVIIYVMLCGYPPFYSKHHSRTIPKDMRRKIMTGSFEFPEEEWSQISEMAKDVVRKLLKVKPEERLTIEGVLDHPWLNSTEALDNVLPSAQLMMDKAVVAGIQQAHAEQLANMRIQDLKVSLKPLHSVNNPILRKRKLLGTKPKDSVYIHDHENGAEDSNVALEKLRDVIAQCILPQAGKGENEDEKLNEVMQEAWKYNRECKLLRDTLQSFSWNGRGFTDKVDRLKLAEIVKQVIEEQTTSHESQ

COc1nc(N[C@H]2CC[C@H](NS(=O)(=O)CC(C)C)CC2)nc2[nH]nc(N3CCOC[C@H]3C)c12 [compound 39, N-(trans-4-((4-Methoxy-3-((R)-3-methylmorpholino)-1H-pyrazolo[3,4-d]pyrimidin-6-yl)amino)cyclohexyl)-2-methylpropane-1-sulfonamide]
pIC50 (BRAF): ≤ 4.70 | pIC50 (CDK7): 5.60 | pIC50 (FLT4): ≤ 4.70 | pIC50 (HCK): ≤ 4.70 | pIC50 (LIMK2): ≤ 4.70 | pIC50 (MAP3K11): ≤ 4.70 | pIC50 (MAP4K4): ≤ 4.70 | pIC50 (MAPK1): ≤ 4.70 | pIC50 (MAPK11): ≤ 4.70 | pIC50 (MAPKAPK5): 5.21 | pIC50 (PDPK1): ≤ 4.70 | pIC50 (PIM1): ≤ 4.70 | pIC50 (RIPK2): ≤ 4.70 | pIC50 (RPS6KA1): ≤ 4.70 | pIC50 (RPS6KA3): ≤ 4.70 | pIC50 (RPS6KA6): ≤ 4.70 | pIC50 (SIK2): ≤ 4.70 | pIC50 (SLK): ≤ 4.70 | pIC50 (SYK): ≤ 4.70 | pIC50 (TEK): ≤ 4.70 | pIC50 (TYK2): ≤ 4.70

From article PMC6407917, “Identification of GSK3186899/DDD853651 as a Preclinical Development Candidate for the Treatment of Visceral Leishmaniasis” (Journal of Medicinal Chemistry, 2018)
